Test results as given in patent US12595248B2, “PRMT5 inhibitors” (Merck Sharp & Dohme LLC, priority 2019, dated 2026).
Read-outs that look alike come from different tables or passages of the source.

Key:
PRMT5 = biological target: T1, PRMT5 (Homo sapiens, UniProt O14744); experiment: PRMT5 Cell Target Engagement (TE) Assay; assay type: cell-based; conditions: MCF-7 cells, treated for 3 days, symmetric dimethylation of arginine (SDMA) by high content imaging
T1 construct: seeded with 4000 MCF-7 cells in 30 μl media; endogenous in cells; host or cells: MCF-7 cells
Source text: PRMT5 Cell Target Engagement (TE) Assay
The PRMT5 TE assay is a biomarker assay for identifying compounds that inhibit symmetric dimethylation of arginine (SDMA) of PRMT5 substrates. The following substrates have been reported for PRMT5: histone H2A and H4 R3, Histone H3 R2, Histone H3 R8, spliceosome Sm proteins, ribosomal protein RPS10, p53, FEN1, nucleoplasmin, nucleolin, EGFR and EBNA. The assay focuses on detecting symmetrically dimethylated nuclear proteins using high content imaging technology. Detection of the expression of symmetrically dimethylated nuclear proteins is through a mixture of primary rabbit monoclonal antibodies to SDMA (CST 13222), which in turn recognized by an Alexafluor 488 dye-conjugated anti-rabbit IgG secondary antibody. The IN Cell Analyzer 2200 or Opera-Phenix measures nuclear Alexafluor 488 fluorescent dye intensity that is directly related to the level of expression of symmetrically dimethylated nuclear proteins at the single cell level. Nuclear AF488 dye intensities are compared to the mean value for DMSO treated cells (MIN) to report percent of inhibition for each compound-treated well.
In this assay, the cell potency (EC50) of each compound was determined from a ten point (1:3 serial dilution; top compound concentration of 10000 nM) titration curve using the following outlined procedure. Each well of a BD falcon collagen coated black/clear bottom 384-well plate was seeded with 4000 MCF-7 cells in 30 μl media and allowed to attach for 5 h. Media is ATCC-formulated Eagle's Minimum Essential Medium, Catalog No. 30-2003. To make the complete growth medium, the following components were added to the base medium: 0.01 mg/mL human recombinant insulin; fetal bovine serum to a final concentration of 10%. Additional 30 μl of media containing 2× compounds were added to each well. Cells were treated for 3 days in 37° C. CO2 incubator. On day 3, cells were fixed with Cytofix, permeabilized with 0.4% Triton-X-100/Cytofix, and washed with D-PBS without Ca/Mg. Cells were blocked with Licor Odessey blocking reagent for 1 h at room temperature, followed by incubation with anti-SDMA (1:1000) antibody at 4° C. overnight. 1° antibody was removed, followed by three washings with DPBS without Ca/Mg and 0.05% Tween20. Hoechst (5 μg/mL), Cell Mask deep stain (1:2000) and Alexa488-conjugated goat anti-rabbit IgG (2 μg/mL) was added for 1 h at room temperature. A final washing step (three washes) was performed before sealing plate for imaging on In Cell Analyzer 2200 or Opera-Phenix. Images from analyzer were uploaded to Columbus (at WP or BOS) for image analysis. IC50 values were determined by 4 parameters robust fit of percent fluorescence units vs. (Log10) compound concentrations.

[1] = biological target: T2, PRMT5-MEP50 enzyme complex (Homo sapiens, UniProt O14744); experiment: PRMT5-MEP50 Enzyme Methylation Assay (Version B); assay type: biochemical
T2 construct: Full-length (FL)-PRMT5-MEP50 enzyme complex (recombinant proteins from baculovirus-transfected Sf21 cells: FL-PRMT5; MW=73837 kDa and FL-MEP50; MW=38614); made in house; host or cells: baculovirus-transfected Sf21 cells
Protocol: PRMT5-MEP50 Enzyme Methylation Assay (Version B)
PRMT5-MEP50 biochemical assay is a direct measurement of the methylation activity of the enzyme complex on a short peptide substrate derived from the N-terminus of H4 histone. Methylation experiment was performed with recombinant PRMT5-MEP50 protein complex. The assessment of inhibitory effect (EC50) of small molecules was measured by the effectiveness of the compounds to inhibit this reaction.
In this assay, the potency (EC50) of each compound was determined from a twenty-point (1:2 serial dilution; top compound concentration of 100000 nM) titration curve using the following outlined procedure. To each well of a white ProxiPlus 384 well-plate, 100 nL of compound (1% DMSO in final assay volume of 10 μL) was dispensed, followed by the addition of 8 μL of 1× assay buffer (50 mM Bicine pH 8.0, 1 mM DTT, 0.004% Tween20, 0.01% BSA) containing 0.625 nM of Full-length (FL)-PRMT5-MEP50 enzyme complex (recombinant proteins from baculovirus-transfected Sf21 cells: FL-PRMT5; MW=[…] and FL-MEP50; MW=38614). Plates were sealed and placed in a 37° C. humidified chamber for 30 minutes pre-incubation with compounds. Subsequently, each reaction was initiated by the addition of 2 μL 1× assay buffer containing 375 nM biotinylated H4R3 (MeI) peptide, and 75 μM S-(5′-Adenosyl)-L-Methionine Chloride (SAM). The final reaction in each well of 10 μL consists of 0.5 nM PRMT5-MEP50, 75 nM biotinylated-peptide, and 15 μM SAM. Methylation reactions were allowed to proceed for 150 minutes in a sealed plate at 37° C. Reactions were immediately quenched by the addition of 1 μL of 10% formic acid. Plates were then frozen and shipped to SAMDI™ Tech Inc. to determine the percent conversion from […]. Dose-response curves were generated by plotting percent effect (% product conversion; Y-axis) vs. Log 10 compound concentrations (X-axis). EC50 values were determined by non-linear regression according to models for either sigmoidal (4 parameters) or biphasic (7 parameters) dose-response curves.

[2] = first of two EC50s: 7 parameters biphasic model, read-out: Enzyme Methylation Assay Version B (EC50_1)
[3] = second of two EC50s: 7 parameters biphasic model, read-out: Enzyme Methylation Assay Version B (EC50_2)

T2 sequence (O14744 whole entry): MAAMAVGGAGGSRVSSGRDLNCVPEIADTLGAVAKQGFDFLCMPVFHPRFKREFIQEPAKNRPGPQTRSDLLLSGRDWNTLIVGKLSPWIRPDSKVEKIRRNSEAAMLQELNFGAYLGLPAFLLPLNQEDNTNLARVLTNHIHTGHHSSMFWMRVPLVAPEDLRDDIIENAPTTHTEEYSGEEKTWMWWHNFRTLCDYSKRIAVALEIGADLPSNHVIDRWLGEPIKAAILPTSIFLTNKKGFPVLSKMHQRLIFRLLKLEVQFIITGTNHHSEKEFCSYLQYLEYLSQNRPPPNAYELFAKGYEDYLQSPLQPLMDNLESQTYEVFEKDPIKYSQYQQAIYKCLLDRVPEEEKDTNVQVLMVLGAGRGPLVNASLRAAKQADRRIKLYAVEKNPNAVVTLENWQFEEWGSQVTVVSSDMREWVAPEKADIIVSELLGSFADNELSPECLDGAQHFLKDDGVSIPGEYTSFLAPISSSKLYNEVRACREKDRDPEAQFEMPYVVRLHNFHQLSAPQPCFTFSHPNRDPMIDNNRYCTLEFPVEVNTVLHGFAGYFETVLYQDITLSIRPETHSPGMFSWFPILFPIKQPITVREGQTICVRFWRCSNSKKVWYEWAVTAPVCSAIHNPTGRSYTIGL
T2 sequence (Q9BQA1 whole entry partner): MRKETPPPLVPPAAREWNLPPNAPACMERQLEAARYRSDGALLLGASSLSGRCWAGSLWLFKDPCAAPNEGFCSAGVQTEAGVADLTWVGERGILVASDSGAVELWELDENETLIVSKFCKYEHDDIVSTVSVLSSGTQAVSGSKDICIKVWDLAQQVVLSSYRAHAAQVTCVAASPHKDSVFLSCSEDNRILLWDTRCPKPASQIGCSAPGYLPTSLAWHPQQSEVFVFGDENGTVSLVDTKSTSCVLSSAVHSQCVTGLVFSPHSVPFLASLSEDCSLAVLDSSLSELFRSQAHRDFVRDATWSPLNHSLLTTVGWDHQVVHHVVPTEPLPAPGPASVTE
T1 sequence (O14744 whole entry): as the sequence (O14744 whole entry) above
T1 sequence (Q9BQA1 whole entry partner): as the sequence (Q9BQA1 whole entry partner) above

Structure (SMILES)	EC50 (PRMT5) [nM]	EC50 [1, 2] [nM]	EC50 [1, 3] [nM]	EC50 ([1]; only one EC50 shown: 4 parameters single site sigmoidal model, 30 min pre-incubation, read-out: Enzyme Methylation Assay Version B (EC50)) [nM]
CCOc1cc(C(=O)N2C3CCC2COC3)ccc1C(=O)N1CC[C@@H](N2CCc3ccccc3C2)[C@H](O)C1 [Example 34, (4-(3-oxa-8-azabicyclo[3.2.1]octane-8-carbonyl)-2-ethoxyphenyl)((3R,4R)-4-(3,4-dihydroisoquinolin-2(1H)-yl)-3-hydroxypiperidin-1-yl)methanone]	2220	~38	20600	–
O=C(c1ccc(C(=O)N2C3CCC2COC3)cc1)N1CC[C@H](N2CCc3ccccc3C2)[C@@H](O)C1 [Example 35]	68	6.6	2580	–
O=C(c1ccc(C(=O)N2C3CCC2COC3)cc1)N1CC[C@@H](N2CCc3ccccc3C2)[C@H](O)C1 [Example 36, (4-(3-oxa-8-azabicyclo[3.2.1]octane-8-carbonyl)phenyl)((3R,4R)-4-(3,4-dihydroisoquinolin-2(1H)-yl)-3-hydroxypiperidin-1-yl)methanone]	> 10000	~552	> 100000	–
O=C(c1ccc(C(=O)N2C3CCC2COC3)cc1)N1CC[C@H](N2CCc3c(F)cccc3C2)[C@@H](O)C1 [Example 37, (4-(3-oxa-8-azabicyclo[3.2.1]octane-8-carbonyl)phenyl)((3S,4S)-4-(5-fluoro-3,4-dihydroisoquinolin-2(1H)-yl)-3-hydroxypiperidin-1-yl)methanone]	1850	~87	28600	–
O=C(c1ccc(C(=O)N2C3CCC2COC3)cc1)N1CC[C@@H](N2CCc3c(F)cccc3C2)[C@H](O)C1 [Example 38, (4-(3-oxa-8-azabicyclo[3.2.1]octane-8-carbonyl)phenyl)((3R,4R)-4-(5-fluoro-3,4-dihydroisoquinolin-2(1H)-yl)-3-hydroxypiperidin-1-yl)methanone]	> 10000	~402	> 100000	–
O=C(c1ccc(C(=O)N2C3CCC2COC3)cc1)N1CC[C@H](N2CCc3cc(F)ccc3C2)[C@@H](O)C1 [Example 39, (4-(3-oxa-8-azabicyclo[3.2.1]octane-8-carbonyl)phenyl)((3S,4S)-4-(6-fluoro-3,4-dihydroisoquinolin-2(1H)-yl)-3-hydroxypiperidin-1-yl)methanone]	> 10000	31200	> 100000	–
O=C(c1ccc(C(=O)N2C3CCC2COC3)cc1)N1CC[C@@H](N2CCc3cc(F)ccc3C2)[C@H](O)C1 [Example 40, (4-(3-oxa-8-azabicyclo[3.2.1]octane-8-carbonyl)phenyl)((3R,4R)-4-(6-fluoro-3,4-dihydroisoquinolin-2(1H)-yl)-3-hydroxypiperidin-1-yl)methanone]	> 10000	45100	> 100000	–
O=C(c1ccc(C(=O)N2C3CCC2COC3)cc1)N1CC[C@H](N2CCc3ccc(F)cc3C2)[C@@H](O)C1 [Example 41, (4-(3-oxa-8-azabicyclo[3.2.1]octane-8-carbonyl)phenyl)((3S,4S)-4-(7-fluoro-3,4-dihydroisoquinolin-2(1H)-yl)-3-hydroxypiperidin-1-yl)methanone]	1490	19	8110	–
O=C(c1ccc(C(=O)N2C3CCC2COC3)cc1)N1CC[C@@H](N2CCc3ccc(F)cc3C2)[C@H](O)C1 [Example 42]	> 10000	12400	> 100000	–
O=C(c1ccc(OCC(F)(F)F)nc1)N1CC[C@H](N2CCc3ccccc3C2)[C@@H](O)C1 [Example 43, ((3S,4S)-4-(3,4-dihydroisoquinolin-2(1H)-yl)-3-hydroxypiperidin-1-yl)(6-(2,2,2-trifluoroethoxy)pyridin-3-yl)methanone]	441	3.7	3200	–
O=C(c1ccc(OCC(F)(F)F)nc1)N1CC[C@@H](N2CCc3ccccc3C2)[C@H](O)C1 [Example 44, ((3R,4R)-4-(3,4-dihydroisoquinolin-2(1H)-yl)-3-hydroxypiperidin-1-yl)(6-(2,2,2-trifluoroethoxy)pyridin-3-yl)methanone]	> 10000	~312	> 100000	–
CC(=O)N1CCC(Nc2cc(C(=O)N3CC[C@H](N4CCc5ccccc5C4)[C@@H](O)C3)c(Cl)cn2)CC1 [Example 49, 1-{4-[(5-chloro-4-{[(3S,4S)-4-(3,4-dihydroisoquinolin-2(1H)-yl)-3-hydroxypiperidin-1-yl]carbonyl}pyridin-2-yl)amino]piperidin-1-yl}ethanone]	7.8	11	8910	–
O=C(c1cc2n(n1)CCN(CC(F)(F)F)C2)N1CC[C@H](N2CCc3ccccc3C2)[C@@H](O)C1 [Example 50, ((3S,4S)-4-(3,4-dihydroisoquinolin-2(1H)-yl)-3-hydroxypiperidin-1-yl)(5-(2,2,2-trifluoroethyl)-4,5,6,7-tetrahydropyrazolo[1,5-a]pyrazin-2-yl)methanone]	4260	~76	33500	–
O=C(c1ccc(-c2ncnn2C2CC2)cc1)N1CC[C@H](N2CCc3ccccc3C2)[C@@H](O)C1 [Example 60, (4-(1-cyclopropyl-1H-1,2,4-triazol-5-yl)phenyl)((3S,4S)-4-(3,4-dihydroisoquinolin-2(1H)-yl)-3-hydroxypiperidin-1-yl)methanone]	435	14	4680	–
O=C(c1ccc(-c2ncnn2C2CC2)cc1)N1CC[C@@H](N2CCc3ccccc3C2)[C@H](O)C1 [Example 61, (4-(1-cyclopropyl-1H-1,2,4-triazol-5-yl)phenyl)((3R,4R)-4-(3,4-dihydroisoquinolin-2(1H)-yl)-3-hydroxypiperidin-1-yl)methanone]	> 10000	–	–	2550
COc1cnc(NC2CCN(C(C)=O)CC2)cc1C(=O)N1CC[C@H](N2CCc3ccccc3C2)[C@@H](O)C1 [Example 88, 1-(4-((4-((3S,4S)-4-(3,4-dihydroisoquinolin-2(1H)-yl)-3-hydroxypiperidine-1-carbonyl)-5-methoxypyridin-2-yl)amino)piperidin-1-yl)ethan-1-one]	14	9.3	2040	–
CC1(C)CC(=O)Nc2cc(C(=O)N3CC[C@@H](N4CCc5ccccc5C4)[C@H](O)C3)ccc21 [Example 95, 7-((3R,4R)-4-(3,4-dihydroisoquinolin-2(1H)-yl)-3-hydroxypiperidine-1-carbonyl)-4,4-dimethyl-3,4-dihydroquinolin-2(1H)-one]	2710	~62	39400	–
